Literature values, collected in patent US20180206518A1, “METHOD OF MAKING CANNABIS OIL H[…] E[…] RELATED CANNABINOID COMPOSITIONS” (priority 2016, published 2018).

Conditions: edible cannabis products, depending on liver function

For `CCCCCc1cc(O)c2c(c1)OC(C)(C)[C@@H]1CCC(C)=CC21` (stereo partly shown) [THC, Δ9-tetrahydrocannabinol], the “THC able to be metabolized” value is given as 2-6%.
